The results in this text go back to ChEMBL document CHEMBL1201862, “PubChem BioAssay data set” (2004).

Test systems include NCI-H522; EKVX; RXF 393; K562; KM12; OVCAR-4; ACHN; SF-539; SF-268; MOLT-4; CCRF-CEM; HL-60; M14; OVCAR-5; HOP-62; A498; SK-MEL-5.
Assay in all cases: DTP human tumour cell line panel, 48 h

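Five concentrations, 48 hours, 96-well plates. GI50 = concentration required for 50% inhibition of growth.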 Activity calls are given as the source filed them. Rule as the data show it: active = GI50 up to about 1.1 µM and inactive = higher.

One may read the GI50 as the concentration giving 50% growth inhibition. For `N=C(N)NCCCC(Nc1c2ccccc2nc2ccccc12)C(=O)O` (stereo not given), the GI50 in the test with NCI-H522 was 44 µM (inactive); in the test on EKVX, > 100 µM (inactive); with RXF 393 it was > 100 µM (inactive); with K562, 84.9 µM (inactive); with KM12 it was > 100 µM (inactive); in the test on OVCAR-4 it was 3.51 µM (inactive). The GI50 in the test on ACHN is > 100 µM (inactive); with SF-539, > 100 µM (inactive); in the test on SF-268 it was > 100 µM (inactive); with MOLT-4, 86.7 µM (inactive); in the test on CCRF-CEM, > 100 µM (inactive); with HL-60, 26.5 µM (inactive). The GI50 in the test on M14 and with OVCAR-5 was > 100 µM (inactive) each time.
For the compound `CCCCc1c2c(nc3c1CCc1cc4cc5c(nc4nc1-3)-c1nc3c(c(CCCC)c1CC5)CCCC3)CCCC2`, the GI50 is 43.7 µM (inactive) with NCI-H522; 37.9 µM (inactive) with HOP-62; 12.5 µM (inactive) in the test on EKVX; 6.56 µM (inactive) in the test on RXF 393; 39.4 µM (inactive) with K562; 48.1 µM (inactive) with KM12. Besides, the GI50 is 23.8 µM (inactive) in the test with ACHN; 16.4 µM (inactive) in the test on SF-539; 39.3 µM (inactive) with SF-268; 35.2 µM (inactive) with MOLT-4; 31.7 µM (inactive) with CCRF-CEM; 42.1 µM (inactive) with HL-60. Also, the GI50 with M14 was 53.1 µM (inactive).
Turning to `Cc1ccc(NC(=O)C2C(=O)N(c3ccc(C)c(C)c3)C(=O)/C2=N/O)cc1C` (stereo not given), the GI50 in the test with NCI-H522, in the test with HOP-62, in the test with EKVX, with RXF 393, with K562 and in the test with KM12 was > 100 µM (inactive) throughout. The GI50 with ACHN, in the test on A498, in the test on SF-539, in the test on SK-MEL-5, with SF-268 and with MOLT-4 was > 100 µM (inactive) in each case. Besides, the GI50 with CCRF-CEM, in the test with HL-60, in the test on M14 and in the test on OVCAR-5 was > 100 µM (inactive) throughout.
As for `COc1ccc(C2=NN(C(=O)COc3ccc(Cl)cc3)C(O)(c3ccc(Cl)cc3)C2)cc1` (stereo not given), the GI50 in the test with NCI-H522, with HOP-62, in the test with K562, with KM12, in the test with OVCAR-4 and in the test on ACHN was > 100 µM (inactive) in each case. Further, the GI50 in the test on SF-539, in the test on SF-268, in the test on MOLT-4, in the test with HL-60, with M14 and in the test with OVCAR-5 was > 100 µM (inactive) throughout.
As to `CC(C)(C)C(=O)CC(=O)C(C)(C)C.CC(C)(C)C(=O)CC(=O)C(C)(C)C.[SiH4]`, the GI50 with NCI-H522 was 0.573 µM (active); with HOP-62, 2.33 µM (inactive); in the test on EKVX, < 0.01 µM (active); in the test with K562, 1.57 µM (inactive); in the test on KM12, 0.767 µM (active); with OVCAR-4 it was 0.612 µM (active). Besides, the 50% growth inhibitory concentration (GI50) in the test with ACHN was 0.689 µM (active); with A498 it was 2.81 µM (inactive); in the test with SF-539, 2.56 µM (inactive); in the test with SK-MEL-5, 2.1 µM (inactive); with SF-268, 1.76 µM (inactive); in the test on MOLT-4, 2.11 µM (inactive). Further, the GI50 with CCRF-CEM was 1.79 µM (inactive); in the test on M14, 2.18 µM (inactive); with OVCAR-5 it was 2.21 µM (inactive).
Consider `CC(O[Si](C)(C)C)C1C=CC(C)n2c(=O)n(-c3ccccc3)c(=O)n21` (stereo not given), for which the GI50 in the test on HOP-62, in the test on EKVX, in the test on RXF 393, in the test with K562, in the test on KM12 and with OVCAR-4 was > 100 µM (inactive) throughout. Moreover, the GI50 was > 100 µM (inactive) with SF-539; > 100 µM (inactive) with SK-MEL-5; < 0.01 µM (active) in the test with SF-268; > 100 µM (inactive) in the test on MOLT-4; > 100 µM (inactive) with HL-60; > 100 µM (inactive) in the test with M14. Also, in the test with OVCAR-5, the GI50 was > 100 µM (inactive).
In the case of `COC1C=CC23c4cc5c(cc4C(O)OC2CN(C)C3C1)OCO5` (stereo not given), the GI50 was 2 µM (inactive) in the test on NCI-H522; 2.54 µM (inactive) in the test on HOP-62; 3.55 µM (inactive) in the test on EKVX; 1.77 µM (inactive) in the test with K562; 2.13 µM (inactive) in the test on KM12; 1.35 µM (inactive) with OVCAR-4. The GI50 in the test with ACHN was 1.32 µM (inactive); in the test on A498 it was 3.1 µM (inactive); with SF-539 it was 1.08 µM (active); with SK-MEL-5 it was 0.434 µM (active); with SF-268 it was 3.37 µM (inactive); with MOLT-4, 1.34 µM (inactive). The GI50 in the test on CCRF-CEM is 1.84 µM (inactive); in the test on HL-60, 1.08 µM (active); with M14 it was 0.746 µM (active); in the test on OVCAR-5, 3.34 µM (inactive).
On to `CCOC(=O)C(C)(c1c(C)[nH]c2ccccc12)c1c(C)[nH]c2ccccc12`, for which the GI50 with HOP-62 was 18.9 µM (inactive); in the test with EKVX it was 25.5 µM (inactive); in the test on RXF 393, 12.9 µM (inactive); in the test on K562, 8.36 µM (inactive); with KM12, 14.2 µM (inactive); in the test with OVCAR-4, 14.9 µM (inactive). In addition, the GI50 was 19.5 µM (inactive) in the test with ACHN; 17.8 µM (inactive) in the test on A498; 18.7 µM (inactive) in the test on SF-539; 15.7 µM (inactive) in the test on SK-MEL-5; 13.6 µM (inactive) in the test with MOLT-4; 17.9 µM (inactive) with CCRF-CEM. Besides, the GI50 with HL-60 is 12.1 µM (inactive); in the test on M14, 14.4 µM (inactive); in the test on OVCAR-5, 19.6 µM (inactive).
Regarding `COc1ccc2c(c1OC)C1=C(C2=O)c2cc3c(cc2CCN1)OCO3`, the GI50 with HOP-62 is 48.6 µM (inactive); in the test with EKVX, 46.9 µM (inactive); with RXF 393 it was 42.7 µM (inactive); in the test on K562, 25.1 µM (inactive); with KM12, 20.4 µM (inactive); in the test with OVCAR-4, 4.35 µM (inactive). The GI50 in the test on ACHN was 3.42 µM (inactive); with A498 it was 55.8 µM (inactive); with SF-539, 28.2 µM (inactive); in the test with SK-MEL-5, 33.1 µM (inactive); in the test with SF-268, 41.9 µM (inactive); with MOLT-4, 21.6 µM (inactive). In addition, the GI50 was 26.1 µM (inactive) with CCRF-CEM, 19.2 µM (inactive) with HL-60, 37.3 µM (inactive) with M14 and 23.7 µM (inactive) in the test with OVCAR-5.
With `Cc1ccc(S(=O)(=O)N/N=C(/CC(=O)c2c(C)[n+]([O-])c3ccccc3[n+]2[O-])C(=O)Nc2ccccc2C)cc1`, the GI50 in the test on NCI-H522, in the test on HOP-62, in the test on EKVX, in the test with RXF 393, in the test with KM12 and in the test with OVCAR-4 was > 100 µM (inactive) in each case. Besides, the GI50 with ACHN, in the test with A498, in the test with SF-539, in the test on SF-268, with M14 and in the test with OVCAR-5 was > 100 µM (inactive) each time.
For the compound `Cc1cc2c(=O)cc(-c3cccs3)oc2c(C(=O)O)c1C`, the GI50 with NCI-H522 was 21.2 µM (inactive); with HOP-62, > 100 µM (inactive); in the test with EKVX, > 100 µM (inactive); in the test on K562 it was 35.8 µM (inactive); with KM12, 97.7 µM (inactive); with OVCAR-4 it was > 100 µM (inactive). In addition, the GI50 with ACHN was > 100 µM (inactive); in the test with A498 it was > 100 µM (inactive); in the test on SF-539, > 10 µM (inactive); in the test with SK-MEL-5 it was > 100 µM (inactive); in the test on SF-268, 34.2 µM (inactive); in the test on MOLT-4 it was > 100 µM (inactive). The figures for the GI50 with CCRF-CEM, with M14 and in the test with OVCAR-5 were 64.7 µM (inactive), > 100 µM (inactive) and > 100 µM (inactive), respectively.
As to `Cc1cccc2c1NC(c1c(C)[nH]c3ccccc13)C2` (stereo not given), the GI50 with NCI-H522 is > 100 µM (inactive); with HOP-62 it was > 100 µM (inactive); in the test on EKVX, 82.6 µM (inactive); with RXF 393 it was 56.4 µM (inactive); with K562, > 100 µM (inactive); in the test with KM12, 62.4 µM (inactive). Besides, the GI50 in the test with ACHN is 94 µM (inactive); with A498 it was > 100 µM (inactive); with SF-539, > 100 µM (inactive); with SK-MEL-5, > 100 µM (inactive); in the test with SF-268 it was > 100 µM (inactive); with MOLT-4, 63 µM (inactive). The GI50 in the test with CCRF-CEM is 57.7 µM (inactive); with HL-60, 50.1 µM (inactive); in the test with M14 it was 78.7 µM (inactive); in the test with OVCAR-5, > 100 µM (inactive).
`COC12OCCN(C)C1=CC(=O)C1(C)N=NCC12` (stereo not given): the GI50 in the test with NCI-H522, with EKVX, in the test on RXF 393, in the test with K562, in the test on KM12 and with ACHN was > 100 µM (inactive) each time. Further, the GI50 in the test on A498, in the test with SF-539, with SK-MEL-5, in the test with MOLT-4, in the test with CCRF-CEM and in the test on M14 was > 100 µM (inactive) in each case.
Take `COc1ccc(/C=N/Nc2nc(-c3cc4oc(=O)n(C)c4cc3Cl)cs2)cc1OC`: the GI50 was 36.2 µM (inactive) with HOP-62; 9.51 µM (inactive) in the test on EKVX; 15.4 µM (inactive) with RXF 393; 4.89 µM (inactive) in the test with K562; 18.8 µM (inactive) in the test with KM12; 11.2 µM (inactive) with OVCAR-4. Further, the GI50 with ACHN was 7.66 µM (inactive); in the test on SF-539, 48.3 µM (inactive); in the test with SK-MEL-5 it was 2.36 µM (inactive); in the test with SF-268 it was 35.3 µM (inactive); in the test on MOLT-4 it was 9.75 µM (inactive); with CCRF-CEM, 91 µM (inactive). In addition, the GI50 was 15.7 µM (inactive) with HL-60, 78.5 µM (inactive) in the test with M14 and > 100 µM (inactive) in the test with OVCAR-5.
